From patent EP1203770A1 (priority 1992, dated 1994)
Where “and” joins values, the source holds several entries; their conditions need not be identical. Equal values may be shown once.

Target: T1, HIV-1 protease (Human immunodeficiency virus type 1 group M subtype B, UniProt P04585)
T1 construct: The protease (or proteinase), consisting of only 99 amino acids, is among the smallest enzymes known
Assay: In vitro HIV protease inhibitory assay (HIV Protease FITC Assay)
Assay type: biochemical
Conditions: for Ki: read-out: HIV-1 FITC Ki; for inhibition at 0.41 µM: HIV-1 Dose 0.410 uM; for inhibition at 1.23 µM: HIV-1 Dose 1.230 uM; for inhibition at 3.7 µM: HIV-1 Dose 3.700 uM; for inhibition at 11 µM: HIV-1 Dose 11.000 uM; for inhibition at 33 µM: HIV-1 Dose 33.000 uM
How it was run: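 Percent inhibition was read as fluorescence after avidin-bead capture and filtration separated FITC cleavage product from biotinylated substrate. Enzyme and substrate reacted 1 h, RT, dark, at pH 5.5 (0.1 M sodium acetate, 1.0 M NaCl, 0.05% NP-40).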

[1] = HIV-1 Dose 10.000 uM, read-out: HIV-1 Protease % Inhib
[2] = HIV-1 Dose 1.000 uM, read-out: HIV-1 Protease % Inhib
[3] = HIV-1 Dose 100.000 uM, read-out: HIV-1 Protease % Inhib
[4] = read-out: HIV-1 Protease % Inhib

| Structure (SMILES) | inhibition at 10 µM [1] [%] | Ki [nM] | inhibition at 1 µM [2] [%] | inhibition at 100 µM [3] [%] | other results |
| --- | --- | --- | --- | --- | --- |
| O=c1oc(C(CC2CC2)CC2CC2)cc(O)c1C(Cc1ccccc1)Cc1ccccc1 [Example 79, 3-(1-Benzyl-2-phenyl-ethyl)-6-(2-cyclopropyl-1-cyclopropylmethyl-ethyl)-4-hydroxy-pyran-2-one] | 122 | 33 |  |  | inhibition at 0.123 µM (HIV-1 Dose 0.123 uM, read-out: HIV-1 Protease % Inhib): 39.9%; inhibition at 0.37 µM (HIV-1 Dose 0.370 uM, read-out: HIV-1 Protease % Inhib): 76.7%; inhibition at 1.1 µM (HIV-1 Dose 1.100 uM, read-out: HIV-1 Protease % Inhib): 106%; inhibition at 3.3 µM (HIV-1 Dose 3.300 uM, read-out: HIV-1 Protease % Inhib): 111%; inhibition at 30 µM (HIV-1 Dose 30.000 uM, read-out: HIV-1 Protease % Inhib): 117% |
| CC(C)CC(CC(C)C)c1cc(O)c(C(c2ccccc2)C2CC2)c(=O)o1 (centres unmarked) [Example 80, 3-(Cyclopropyl-phenyl-methyl)-4-hydroxy-6-(1-isobutyl-3-methyl-butyl)-pyran-2-one] | 78.9 |  | 50.5 | 102 |  |
| O=c1oc(C(CC2CC2)CC2CC2)cc(O)c1C(c1ccccc1)C1CC1 (centres unmarked) [Example 81] |  | 31 |  |  | HIV-1 Protease % Inhib (HIV-1 Dose 1.000 uM): 41.76%; HIV-1 Protease % Inhib (HIV-1 Dose 10.000 uM): 76.98%; HIV-1 Protease % Inhib (HIV-1 Dose 100.000 uM): 83.48% and 83.5%; HIV-1 Protease % Inhib (dose not given): <10% |
| O=c1oc(CCc2ccccc2)cc(O)c1C(C1CC1)C1CC1 [Example 82, 3-Dicyclopropylmethyl-4-hydroxy-6-phenethyl-pyran-2-one] | 90.9 |  | 19.8 | 106 |  |
| CC(c1cc(O)c(C(C2CC2)C2CC2)c(=O)o1)C1CC1 (centres unmarked) [Example 83, 6-(1-Cyclopropyl-ethyl)-3-dicyclopropylmethyl-4-hydroxy-pyran-2-one] | 72 |  | 10.5 | 93.5 |  |
| CC(CC1CC1)(c1cc(O)c(C(C2CC2)C2CC2)c(=O)o1)C1CC1 (centres unmarked) [Example 84, 6-(1-Cyclopropyl-1-cyclopropylmethyl-ethyl)-3-dicyclopropylmethyl-4-hydroxy-pyran-2-one] | 91 |  | 54.8 |  | HIV-1 Protease % Inhib (HIV-1 Dose 100.000 uM): 120.09% and 100% |
| CCC(CC1CCCCC1)c1cc(O)c(C(c2ccccc2)C2CC2)c(=O)o1 (centres unmarked) [Example 85, 6-(1-Cyclohexylmethyl-propyl)-3-(cyclopropyl-phenyl-methyl)-4-hydroxy-pyran-2-one] | 77 |  | 11.6 | 92.1 |  |
| CCC(c1ccccc1)c1c(O)cc(C(CC2CC2)CC2CC2)oc1=O (centres unmarked) [Example 87, 6-(2-Cyclopropyl-1-cyclopropylmethyl-ethyl)-4-hydroxy-3(1-phenyl-propyl)-pyran-2-one] | 83.8 |  | 17.8 | 90.2 |  |
| O=c1oc(C(Cc2ccccc2)CC2CC2)cc(O)c1C(c1ccccc1)C1CC1 (centres unmarked) [Example 88, 6-(1-Benzyl-2-cyclopropyl-ethyl)-3-(cyclopropyl-phenyl-methyl)-4-hydroxy-pyran-2-one] | 60.8 |  | 46.2 | 95.1 |  |
| O=c1oc(CCC2CC2)cc(O)c1C(c1ccccc1)C1CC1 (centres unmarked) [Example 89, 6-(2-Cyclopropyl-ethyl)-3-(cyclopropyl-phenyl-methyl)-4-hydroxy-pyran-2-one] | 70 |  | < 10 | 84 | HIV-1 Protease % Inhib (dose not given): <10% |
| CCC(CC1CC1)c1cc(O)c(C(c2ccccc2)C2CC2)c(=O)o1 (centres unmarked) [Example 90, 6-(1-Cyclopropylmethyl-propyl)-3-(cyclopropyl-phenyl-methyl)-4-hydroxy-pyran-2-one] | 95.1 |  | 61.2 | 95.9 | HIV-1 Protease % Inhib (HIV-1 Dose 100.000 uM): 96% |
| O=c1oc(CCCCc2ccccc2)cc(O)c1C(c1ccccc1)C1CC1 (centres unmarked) [Example 91, 3-(Cyclopropyl-phenyl-methyl)-4-hydroxy-6-(4-phenyl-butyl)-pyran-2-one] | 27.8 |  | < 10 | 62 |  |
| O=c1oc(C(CC2CC2)CC2CC2)cc(O)c1C(C1CCCCC1)C1CC1 (centres unmarked) [Example 92, 3-(Cyclohexyl-cyclopropyl-methyl)-6-(2-cyclopropyl-1-cyclopropylmethyl-ethyl)-4-hydroxy-pyran-2-one] | 80.9 |  | 38.3 | 87.1 |  |
| CCC(CCCc1ccccc1)c1cc(O)c(C(c2ccccc2)C2CC2)c(=O)o1 (centres unmarked) [Example 93, 3-(Cyclopropyl-phenyl-methyl)-6-(1-ethyl-4-phenyl-butyl)-4-hydroxy-pyran-2-one] | 72.6 |  |  | 79.3 | HIV-1 Protease % Inhib (HIV-1 Dose 10.000 uM): 67.65% and 71.27%; HIV-1 Protease % Inhib (HIV-1 Dose 100.000 uM): 59.48% and 67.68%; HIV-1 Protease % Inhib (dose not given): <10% |
| O=c1oc(CCCC2CCCCC2)cc(O)c1C(c1ccccc1)C1CC1 (centres unmarked) [Example 94, 6-(3-Cyclohexyl-propyl)-3-(cyclopropyl-phenyl-methyl)-4-hydroxy-pyran-2-one] | 25 |  | < 10 | 52.4 |  |
| CCC(CCC1CCCCC1)c1cc(O)c(C(c2ccccc2)C2CC2)c(=O)o1 (centres unmarked) [Example 95, 6-(3-Cyclohexyl-1-ethyl-propyl)-3-(cyclopropyl-phenyl-methyl)-4-hydroxy-pyran-2-one] | 33.6 |  | < 10 | 41 |  |
| CCC(c1ccccc1)c1c(O)cc(CCC2CC2)oc1=O (centres unmarked) [Example 96, 6-(2-Cyclopropyl-ethyl)-4-hydroxy-3-(1-phenyl-propyl)-pyran-2-one] | 77 | 1400 | 27.9 | 90.5 |  |
| C=CCC(CC=C)c1cc(O)c(C(c2ccccc2)C2CC2)c(=O)o1 (centres unmarked) [Example 97, 6-(1-Allyl-but-3-enyl)-3-(cyclopropyl-phenyl-methyl)-4-hydroxy-pyran-2-one] | 99.6 | 100 | 75.9 | 110 |  |
| C=CCCc1cc(O)c(C(c2ccccc2)C2CC2)c(=O)o1 (centres unmarked) [Example 98, 6-But-3-enyl-3-(cyclopropyl-phenyl-methyl)-4-hydroxy-pyran-2-one] | 93.5 |  | 50.8 | 110 |  |
| CCC(CCc1ccccc1)c1cc(O)c(C(c2ccccc2)C2CC2)c(=O)o1 (centres unmarked) [Example 99, 3-(Cyclopropyl-phenyl-methyl)-6-(1-ethyl-3-phenyl-propyl)-4-hydroxy-pyran-2-one] | 99.6 |  | 71.5 | 90.7 |  |
| CCC(c1ccccc1)c1c(O)c(Br)c(CCC2CC2)oc1=O (centres unmarked) [Example 100, 5-Bromo-6-(2-cyclopropyl-ethyl)-4-hydroxy-3-(1-phenyl-propyl)-pyran-2-one] | 94.6 | 480 | 38.3 | 104 |  |
| CCC(c1ccccc1)c1c(O)cc(C(Cc2ccccc2)Cc2ccccc2)oc1=O (centres unmarked) [Example 101, 6-(1-Benzyl-2-phenyl-ethyl)-4-hydroxy-3-(1-phenyl-propyl)-pyran-2-one] | 78.8 |  | 52.2 | 97.9 |  |
| COCCOCCCc1cc(O)c(C(c2ccccc2)C2CC2)c(=O)o1 (centres unmarked) [Example 102, 3-(Cyclopropyl-phenyl-methyl)-4-hydroxy-6-(3-(2-methoxy-ethoxy)-propyl)-pyran-2-one] | 62.2 | 1520 | 33.8 | 105 |  |
| COCCOCCCc1oc(=O)c(C(c2ccccc2)C2CC2)c(O)c1CCOCCOC (centres unmarked) [Example 103] | 31.3 |  | 26.6 | 83 |  |
| CCCc1cc(O)c(C(c2ccccc2)C2CC2)c(=O)o1 (centres unmarked) [Example 104, 3-(Cyclopropyl-phenyl-methyl)-4-hydroxy-6-propyl-pyran-2-one] | 73.2 |  | 50 | 87.3 |  |
| CCC(c1ccccc1)c1c(O)c(Br)c(CCc2ccccc2)oc1=O (centres unmarked) [Example 105, 5-Bromo-4-hydroxy-6-phenylethyl-3(1-phenyl-propyl)-pyran-2-one] |  | 458 |  | 108 | inhibition at 0.41 µM [4]: 14.3%; inhibition at 1.23 µM [4]: 38.9%; inhibition at 3.7 µM [4]: 75.3%; inhibition at 11 µM [4]: 103%; inhibition at 33 µM [4]: 110% |
| CCC(CCOCCOC)c1cc(O)c(C(c2ccccc2)C2CC2)c(=O)o1 (centres unmarked) [Example 106, 3-(Cyclopropyl-phenyl-methyl)-6-(1-ethyl-3-(2-methoxy-ethoxy)-propyl)-4-hydroxy-pyran-2-one] |  | 58 |  | 119 | inhibition at 0.41 µM [4]: 57.4%; inhibition at 1.23 µM [4]: 82.1%; inhibition at 3.7 µM [4]: 101%; inhibition at 11 µM [4]: 111%; inhibition at 33 µM [4]: 115% |
| COCCOCCC(Cc1ccccc1)c1cc(O)c(C(c2ccccc2)C2CC2)c(=O)o1 (centres unmarked) [Example 107, 6-(1-Benzyl-3-(2-methoxy-ethoxy)-propyl)-3-(cyclopropyl-phenyl-methyl)-4-hydroxy-pyran-2-one] |  | 41 |  | 110 | inhibition at 0.41 µM [4]: 50%; inhibition at 1.23 µM [4]: 80.3%; inhibition at 3.7 µM [4]: 100%; inhibition at 11 µM [4]: 103%; inhibition at 33 µM [4]: 109% |
